Assay results taken from PubChem BioAssay (NCI).
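Cultured in 96-well plates, cells were exposed to test compound for 48 hours across five concentrations. Abbreviation: GI50, concentration required for 50% inhibition of growth. TGI marks complete inhibition of growth.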

How the values were obtained:
Test in all cases: DTP human tumour cell line panel, 48 h
[1] = test system: SNB-75 CNS
[2] = test system: SN12C renal
[3] = test system: SNB-19 CNS
[4] = test system: PC-3 prostate
[5] = test system: NCI-H23 lung
[6] = test system: MOLT-4 leukemia
[7] = test system: LOX IMVI melanoma
[8] = test system: A498 renal
[9] = test system: RXF 393 renal
[10] = test system: NCI-H226 lung

SMILES	GI50 [1] [µM]	TGI [1] [µM]	GI50 [2] [µM]	TGI [2] [µM]	GI50 [3] [µM]	TGI [3] [µM]	GI50 [4] [µM]	TGI [4] [µM]	GI50 [5] [µM]	TGI [5] [µM]	GI50 [6] [µM]	TGI [6] [µM]	GI50 [7] [µM]	TGI [7] [µM]	GI50 [8] [µM]	TGI [8] [µM]	GI50 [9] [µM]	TGI [9] [µM]	GI50 [10] [µM]	TGI [10] [µM]
CCc1c[nH]c2ncnc(N3CC[C@@](N)(CNC(=O)c4ccc(F)cc4F)C3)c12	16.3	77.5	32.1	> 100	44.8	> 100	35.4	> 100	26.4	> 100	18.7	> 81.2	31.1	> 100	16.4	53.4	7.16	35.9	22	> 100
COc1ccc2c(c1)nc(N)c1c3cccnc3cn21	0.06	> 100	0.382	> 100	0.212	> 100	0.0412	27.7	0.345	50	0.0861	> 100	0.0713	18.7	0.0339	3.04	0.0224	0.0777	0.737	27
O=[N+]([O-])c1ccc(CS(=O)Cc2ccccc2)cc1 (stereo not given)	–	> 100	–	> 100	–	> 100	–	> 100	–	> 100	–	> 100	–	> 100	–	> 100	–	> 100	–	> 100
C=C[C@]1(C)C=C2C(=O)[C@@]3(O)OC[C@@]4(CCCC(C)(C)C43O)C2(O)C(O)C1 (stereo not given in full)	3.51	14	8.4	23.2	23.3	> 69	14.9	32.7	2.71	8.51	3.09	15.2	1.96	6.48	12.8	25.6	1.62	3.48	5.43	12.1
O=C(Nc1ccc2c(c1)oc(=O)c1ccccc12)C(Cl)Cl	–	> 100	–	> 100	–	> 100	–	> 100	–	> 100	–	> 100	–	> 100	–	> 100	–	> 100	–	> 100
C=C(C)[C@@H]1CC[C@@]2(C)[C@H]1[C@H]1CCC3[C@@]4(C)CC[C@H](O)C(C)(C)[C@@H]4CC[C@@]3(C)[C@]1(C)C[C@@H]2O (stereo not given in full)	–	> 100	–	> 100	–	> 100	–	> 100	–	> 100	–	> 100	–	> 100	–	> 100	–	> 100	–	> 100
Nc1nc(Nc2cccc(F)c2)nc2ccccc12	15.8	50.4	32.8	> 100	35.3	> 100	31	> 100	24.1	> 100	14.6	> 100	15.5	29	1.4	44.8	16.9	45.3	35	> 100
COC(=O)[C@@H]1CCCN1C(=O)[C@@H]1CCCN1C(=O)[C@@H](Cc1c[nH]c2ccccc12)NC(=S)Nc1cc(C(F)(F)F)cc(C(F)(F)F)c1	1.91	> 100	6.81	> 100	16.2	> 100	2.95	24.9	6.35	> 100	3.16	> 100	1.89	4.38	11.1	98.2	2.14	5.89	7.74	> 100
CCSc1nc(COC(=O)NC)c(COC(=O)NC)n1C	–	> 100	–	> 100	–	> 100	–	> 100	–	> 100	–	> 100	–	> 100	–	> 82	–	78.5	–	> 100
COc1ccc2c(c1)C(=O)c1c-2n(CCCN2CCOCC2)c(=O)c2ccccc12	3.86	23.1	4.25	> 100	2.65	30.9	8.67	> 100	2.94	10.1	1.47	> 100	1.45	3.36	1.87	5.48	3.22	> 21.6	2.59	7.57
Oc1cc(Cl)ccc1Oc1ccc(Cl)cc1Cl	2.31	8.71	3.12	11.4	3.66	13.7	2.78	8.43	2.07	5.5	3.74	11.3	1.87	3.86	2.8	14.1	2.06	5.09	2.32	6.82
C[C@H](CS(C)(=O)=O)Nc1ncc2cc(Oc3ccc(F)cc3F)c(=O)n(C)c2n1	> 25	> 25	> 25	> 25	> 25	> 25	> 25	> 25	> 25	> 25	> 25	> 25	> 25	> 25	> 25	> 25	> 25	> 25	> 25	> 25
Cc1ncc([N+](=O)[O-])n1CCNC(=O)CCCn1cnc([N+](=O)[O-])n1	–	> 100	–	> 55.9	–	> 100	–	> 100	–	> 100	–	> 100	–	> 100	–	> 100	–	> 100	–	> 100
CS(=O)(=O)Nc1cc(-c2ccc3ncnc(Nc4ccc5c(cnn5Cc5ccc(F)cc5)c4)c3c2)cnc1Cl	0.211	2.97	1.66	19.3	1.81	12.2	1.8	8.68	1.43	5.43	0.801	3.89	1.18	3.27	1.33	3.4	0.38	2.26	2.18	11
Cc1c(C)c2ccc(OC/C=C3\CCC(=O)O3)cc2oc1=O	12.3	24.8	18.2	43	17.2	35.9	13.4	31	15.4	29.6	19.8	> 100	15.2	29.4	17.9	37.1	14.2	28.2	18.9	40.8
O=c1oc2ccc(Cl)cc2c(=O)n1-c1ccc(I)cc1F	0.2	1.36	0.204	3.07	0.206	> 100	0.924	6.92	0.169	1.5	0.384	1.81	0.248	1.69	0.055	0.182	0.339	1.57	0.566	2.92
COc1ccccc1-c1c(C)nn2c(NCc3ccccn3)cc(C)nc12	> 50	> 50	29.9	> 50	> 50	> 50	30.6	> 50	48.7	> 50	7.68	> 50	29.8	> 50	3.84	> 50	33.5	> 50	40.3	> 50
